Source: patent US12624034B2, “Non-covalent modifiers of AKT1 and uses thereof” (Terremoto Biosciences, Inc., priority 2023, dated 2026)
Like-named read-outs stand apart in the source and are kept apart here.

What was measured:
AKT1 WT = target: T1, AKT1 WT (Homo sapiens, UniProt P31749); assay: Live cell AKT1 WT target engagement by NanoBRET competitive probe displacement in HEK293 cells; assay type: binding; conditions: NanoBRET live cell target engagement, HEK293 cells, 2 h at 37° C.
T1 construct: expressed in transfected cells; host or cells: HEK293
T1 sequence (P31749 whole entry): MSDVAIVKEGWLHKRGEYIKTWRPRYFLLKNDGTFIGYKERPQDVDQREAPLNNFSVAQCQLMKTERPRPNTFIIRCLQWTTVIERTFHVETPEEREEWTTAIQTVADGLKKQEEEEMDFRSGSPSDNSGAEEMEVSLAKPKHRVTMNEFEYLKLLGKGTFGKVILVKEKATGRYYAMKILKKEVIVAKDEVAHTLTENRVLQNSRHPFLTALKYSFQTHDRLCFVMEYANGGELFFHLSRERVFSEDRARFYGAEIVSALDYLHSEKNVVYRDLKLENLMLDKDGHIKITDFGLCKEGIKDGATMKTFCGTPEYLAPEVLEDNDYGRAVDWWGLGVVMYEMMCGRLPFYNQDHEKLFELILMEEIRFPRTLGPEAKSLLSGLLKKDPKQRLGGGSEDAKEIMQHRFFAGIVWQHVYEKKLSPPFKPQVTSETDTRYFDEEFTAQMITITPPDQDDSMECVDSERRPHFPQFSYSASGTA
Description: (§1) Determining live cell AKT1 E17K, AKT1 WT, and AKT2 target engagement by NanoBRET competitive probe displacement. […] Briefly, HEK293 cells were transfected with plasmids encoding kinase-NanoLuciferase fusion proteins overnight. Cells were then treated with serial dilutions of compound and an ˜EC50 concentration of fluorescently-tagged ATP-competitive tracer (Promega). After incubation for 2 h at 37° C., luciferase substrate and extracellular luciferase inhibitor were added to all wells, and luminescent intensity at 460 nm and 600 nm were measured on a multimode plate-reader. The ratio of E600/E460 was calculated to give the tracer engagement signal (BRET). IC50 values were calculated by fitting BRET values to a log(inhibitor) vs. response Hill equation.

AKT2 = target: T2, AKT2 (Homo sapiens, UniProt P31751); assay: Live cell AKT2 target engagement by NanoBRET competitive probe displacement in HEK293 cells; assay type: binding; conditions: NanoBRET live cell target engagement, HEK293 cells, 2 h at 37° C.
T2 construct: expressed in transfected cells; host or cells: HEK293
T2 sequence (P31751 whole entry): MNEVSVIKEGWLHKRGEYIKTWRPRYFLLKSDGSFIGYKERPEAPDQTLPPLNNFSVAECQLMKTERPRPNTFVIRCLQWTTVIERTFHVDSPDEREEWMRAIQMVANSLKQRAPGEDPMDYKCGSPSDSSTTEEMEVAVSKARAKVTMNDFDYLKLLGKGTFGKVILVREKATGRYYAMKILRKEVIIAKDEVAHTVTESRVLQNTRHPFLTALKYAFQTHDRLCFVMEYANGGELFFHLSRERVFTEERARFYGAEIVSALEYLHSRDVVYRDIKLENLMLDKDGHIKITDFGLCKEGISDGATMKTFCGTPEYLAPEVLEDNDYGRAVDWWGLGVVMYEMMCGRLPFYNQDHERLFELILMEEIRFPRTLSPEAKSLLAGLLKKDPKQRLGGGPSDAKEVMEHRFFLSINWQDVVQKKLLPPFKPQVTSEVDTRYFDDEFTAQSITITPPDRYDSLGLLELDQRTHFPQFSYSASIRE
Description: as §1

| SMILES | IC50 (AKT1 WT; read-out: AKT1 WT IC50) [nM] | IC50 (AKT2; read-out: AKT2 IC50) [nM] | IC50 (AKT1 WT; AKT1 WT IC50 (nM)) [nM] | IC50 (AKT2; AKT2 IC50 (nM)) [nM] |
| --- | --- | --- | --- | --- |
| Nc1ncccc1-c1nc2ccc(-n3cccn3)nc2n1-c1ccc2c(c1)CC[C@@H]2NC(=O)c1cncc(OC(F)(F)F)c1 [Compound 138] | 13.5 | 284 |  |  |
| Cc1ncccc1S(=O)(=O)N[C@H]1CCc2cc(-n3c(-c4cccnc4N)nc4ccc(-n5cccn5)nc43)ccc21 [Compound 139] | 89.6 | 5850 |  |  |
| Cc1ncccc1CN[C@H]1CCc2cc(-n3c(-c4cccnc4N)nc4ccc(-n5cccn5)nc43)ccc21 [Compound 140] | 31.5 | 576 |  |  |
| Nc1ncccc1-c1nc2ccc(-n3cccn3)nc2n1-c1ccc2c(c1)CC[C@@H]2NCc1cccnc1 [Compound 141] | 52.6 | 734 |  |  |
| Nc1ncccc1-c1nc2ccc(-n3cccn3)nc2n1-c1ccc2c(c1)CC[C@@H]2NCc1ccncc1 [Compound 142] | 43.8 | 886 |  |  |
| Cc1ncc(C(=O)N[C@H]2CCc3cc(-n4c(-c5cccnc5N)nc5ccc(-n6cccn6)nc54)ccc32)cn1 [Compound 143] | 24.9 | 138 |  |  |
| Cn1nccc1C(=O)N[C@H]1CCc2cc(-n3c(-c4cccnc4N)nc4ccc(-n5cccn5)nc43)ccc21 [Compound 144] | 43.6 | 520 |  |  |
| Cc1ccc2nc(-c3cccnc3N)n(-c3ccc4c(c3)CC[C@@H]4NC(=O)c3cccnc3C)c2n1 [Compound 145] | 170 | > 10000 |  |  |
| Cc1ccc2nc(-c3cccnc3N)n(-c3ccc4c(c3)CC[C@@H]4NC(=O)c3ccc(C(F)F)nc3)c2n1 [Compound 146] | 508 | > 10000 |  |  |
| Cc1ncccc1C(=O)N[C@@H]1c2ccc(-n3c(-c4cccnc4N)nc4ccc(-n5cccn5)nc43)cc2CC1F (stereo partly shown) [Compound 147] | 19.6 | 131 |  |  |
| Cc1ncccc1C(=O)N[C@@H]1c2ccc(-n3c(-c4cccnc4N)nc4ccc(-n5cccn5)nc43)cc2CC1F (stereo partly shown) [Compound 148] | 16.7 | 107 |  |  |
| COCc1ncccc1C(=O)N[C@H]1CCc2cc(-n3c(-c4cccnc4N)nc4ccc(-n5cccn5)nc43)ccc21 [Compound 149] | 50.3 | 1580 |  |  |
| Cc1cc(C(=O)N[C@H]2CCc3cc(-n4c(-c5cccnc5N)nc5ccc(-n6cccn6)nc54)ccc32)c(C)nc1C [Compound 150] | 18.2 | 107 |  |  |
| Cc1ncc(C(=O)N[C@H]2CCc3cc(-n4c(-c5cccnc5N)nc5ccc(-n6cccn6)nc54)ccc32)c(C(F)F)n1 [Compound 151, (S)—N-(5-(2-(2-aminopyridin-3-yl)-5-(1H-pyrazol-1-yl)-3H-imidazo[4,5-b]pyridin-3-yl)-2,3-dihydro-1H-inden-1-yl)-4-(difluoromethyl)-2-methylpyrimidine-5-carboxamide] | 22.8 | 366 |  |  |
| Nc1ncccc1-c1nc2ccc(-n3cccn3)nc2n1-c1ccc2c(c1)CC[C@@H]2NC(=O)c1cccnc1CO [Compound 152, (S)—N-(5-(2-(2-aminopyridin-3-yl)-5-(1H-pyrazol-1-yl)-3H-imidazo[4,5-b]pyridin-3-yl)-2,3-dihydro-1H-inden-1-yl)-2-(hydroxymethyl)nicotinamide] | 61.7 | 984 |  |  |
| Cc1ccc(C(C)N[C@H]2CCc3cc(-n4c(-c5cccnc5N)nc5ccc(-n6cccn6)nc54)ccc32)cn1 (stereo partly shown) [Compound 153] | 120 | 2220 |  |  |
| Cc1ccc(C(C)N[C@H]2CCc3cc(-n4c(-c5cccnc5N)nc5ccc(-n6cccn6)nc54)ccc32)cn1 (stereo partly shown) [Compound 154] | 508 | 3180 |  |  |
| Nc1ncccc1-c1nc2ccc(-n3cccn3)nc2n1-c1ccc2c(c1)CC[C@@H]2n1cc(-c2ccccc2)nn1 [Compound 155, (S)-3-(3-(1-(4-phenyl-1H-1,2,3-triazol-1-yl)-2,3-dihydro-1H-inden-5-yl)-5-(1H-pyrazol-1-yl)-3H-imidazo[4,5-b]pyridin-2-yl)pyridin-2-amine] |  |  | 16.5 | 197 |
| Nc1ncccc1-c1nc2ccc(-n3cccn3)nc2n1-c1ccc2c(c1)CC[C@@H]2n1cc(Cc2ccccc2)nn1 [Compound 156] | 39.3 | 722 |  |  |
| COc1ncncc1C(=O)N[C@H]1CCc2cc(-n3c(-c4cccnc4N)nc4ccc(-n5cccn5)nc43)ccc21 [Compound 157] | 40.5 | 521 |  |  |
| COc1cc(C(=O)N[C@H]2CCc3cc(-n4c(-c5cccnc5N)nc5ccc(-n6cccn6)nc54)ccc32)n(C)n1 [Compound 158] | 13.5 | 124 |  |  |

| SMILES | IC50 (AKT1 WT; read-out: AKT1 WT IC50) [nM] | IC50 (AKT2; read-out: AKT2 IC50) [nM] | IC50 (AKT1 WT; AKT1 WT IC50 (nM)) [nM] | IC50 (AKT2; AKT2 IC50 (nM)) [nM] |
| --- | --- | --- | --- | --- |
| Cc1ncc(F)cc1C(=O)N[C@H]1CCc2cc(-n3c(-c4cccnc4N)nc4ccc(-n5cccn5)nc43)ccc21 [Compound 159] | 4.65 | 22.1 |  |  |
| Nc1ncccc1-c1nc2ccc(-n3cccn3)nc2n1-c1ccc2c(c1)CC[C@@H]2NC(=O)c1cnc2nccn2c1 [Compound 160] | 53.5 | 560 |  |  |
| Nc1ncccc1-c1nc2ccc(-n3cccn3)nc2n1-c1ccc2c(c1)CC[C@@H]2NC(=O)c1cccn2ccnc12 [Compound 161] | 94.6 | 1910 |  |  |
| COc1ncc(C(=O)N[C@H]2CCc3cc(-n4c(-c5cccnc5N)nc5ccc(-n6cccn6)nc54)ccc32)cc1F [Compound 162] | 9.12 | 37.8 |  |  |
| Cn1nc(C(=O)N[C@H]2CCc3cc(-n4c(-c5cccnc5N)nc5ccc(-n6cccn6)nc54)ccc32)c2cccnc21 [Compound 163] | 20.4 | 363 |  |  |
| Nc1ncccc1-c1nc2ccc(-n3cccn3)nc2n1-c1ccc2c(c1)CC[C@@H]2NC(=O)c1ccnc(OC2COC2)c1 [Compound 164, (S)—N-(5-(2-(2-aminopyridin-3-yl)-5-(1H-pyrazol-1-yl)-3H-imidazo[4,5-b]pyridin-3-yl)-2,3-dihydro-1H-inden-1-yl)-2-(oxetan-3-yloxy)isonicotinamide] | 15.3 | 180 |  |  |
| Nc1ncccc1-c1nc2c(F)cc(-n3cccn3)nc2n1-c1ccc2c(c1)CC[C@@H]2NC(=O)c1ccc(C(F)F)nc1 [Compound 165, (S)—N-(5-(2-(2-aminopyridin-3-yl)-7-fluoro-5-(1H-pyrazol-1-yl)-3H-imidazo[4,5-b]pyridin-3-yl)-2,3-dihydro-1H-inden-1-yl)-6-(difluoromethyl)nicotinamide] | 11.6 | 100 |  |  |
| Cc1cc(C(=O)N[C@H]2CCc3cc(-n4c(-c5cccnc5N)nc5ccc(-n6cccn6)nc54)ccc32)nn1C(F)F [Compound 166] | 29.9 | 687 |  |  |
| Cc1ccc(C(=O)N[C@H]2CCc3cc(-n4c(-c5cccnc5N)nc5ccc(-n6cccn6)nc54)ccc32)c(C(F)F)n1 [Compound 167] | 40.9 | 830 |  |  |
| Cc1ccc(CN(C)[C@H]2CCc3cc(-n4c(-c5cccnc5N)nc5ccc(-n6cccn6)nc54)ccc32)cn1 [Compound 168] | 41.1 | 1010 |  |  |
| Nc1ncccc1-c1nc2ccc(-n3cccn3)nc2n1-c1ccc2c(c1)CC[C@@H]2n1cnnc1Cc1ccccc1 [Compound 169, (S)-3-(3-(1-(3-benzyl-4H-1,2,4-triazol-4-yl)-2,3-dihydro-1H-inden-5-yl)-5-(1H-pyrazol-1-yl)-3H-imidazo[4,5-b]pyridin-2-yl)pyridin-2-amine] | 12 | 228 |  |  |
| Nc1ncccc1-c1nc2ccc(-n3cccn3)nc2n1-c1ccc2c(c1)CC[C@@H]2NC(=O)c1ccnn1C(F)F [Compound 170] | 69.6 | 1380 |  |  |
| CC#Cc1cc(C(=O)N[C@H]2CCc3cc(-n4c(-c5cccnc5N)nc5ccc(-n6cccn6)nc54)ccc32)ccn1 [Compound 171, (S)—N-(5-(2-(2-aminopyridin-3-yl)-5-(1H-pyrazol-1-yl)-3H-imidazo[4,5-b]pyridin-3-yl)-2,3-dihydro-1H-inden-1-yl)-2-(prop-1-yn-1-yl)isonicotinamide] | 7.74 | 82.9 |  |  |
| Cc1cn(C)nc1C(=O)N[C@H]1CCc2cc(-n3c(-c4cccnc4N)nc4ccc(-n5cccn5)nc43)ccc21 [Compound 172] | 203 | 2390 |  |  |
| Nc1ncccc1-c1nc2ccc(-n3cccn3)nc2n1-c1ccc2c(c1)CC[C@@H]2NC(=O)c1cc2n(n1)CCC2 [Compound 173] | 30.2 | 226 |  |  |
| Nc1ncccc1-c1nc2ccc(-n3cccn3)nc2n1-c1ccc2c(c1)CC[C@@H]2NC(=O)c1cc2ccccn2n1 [Compound 175] | 13 | 79.7 |  |  |
| Nc1ncccc1-c1nc2ccc(-n3cccn3)nc2n1-c1ccc2c(c1)CC[C@@H]2NC(=O)c1cc2ncccn2n1 [Compound 176] | 24.7 | 315 |  |  |
| Nc1ncccc1-c1nc2c(C(F)F)cc(-n3cccn3)nc2n1-c1ccc2c(c1)CC[C@@H]2NC(=O)c1ccc(C(F)F)nc1 [Compound 177, (S)—N-(5-(2-(2-aminopyridin-3-yl)-7-(difluoromethyl)-5-(1H-pyrazol-1-yl)-3H-imidazo[4,5-b]pyridin-3-yl)-2,3-dihydro-1H-inden-1-yl)-6-(difluoromethyl)nicotinamide] | 10.6 | 47.2 |  |  |
| Nc1ncccc1-c1nc2ccc(-n3cccn3)nc2n1-c1ccc2c(c1)CC[C@@H]2n1cnnc1-c1ccccc1 [Compound 178] | 88.2 | 3520 |  |  |
| CN1CC(Oc2cc(C(=O)N[C@H]3CCc4cc(-n5c(-c6cccnc6N)nc6ccc(-n7cccn7)nc65)ccc43)ccn2)C1 [Compound 179] | 80 | 1270 |  |  |
